According to US9074255B2, “Method of predicting a predisposition to QT prolongation” (Vanda Pharmaceuticals, Inc., priority 2009, dated 2015):

Columns and labels:
[1] = test system: QT interval; assay: QT prolongation vs presence or absence of TT genotype at rs3775378 in 174 individuals given iloperidone; type: in vivo, human; conditions: 24 mg/day B.I.D. oral, two weeks
Description: (§1) Since the QT interval changes with changes in heart rate, the QT interval is often measured as a corrected QT (QTc) interval. Any number of formulas may be employed to calculate the QTc, including, for example, the Fridericia formula (QTcF), the Bazett formula (QTcB), and the Rautaharju formula (QTp), among others. In the studies described herein, QT was calculated using the Fridericia formula. However, the present invention includes the use of any such formula or method for calculating a QTc or an uncorrected QT. Using the genotypes at the SNP loci above, it is possible, with a high degree of certainty, to predict an individual's predisposition to QT prolongation.

[2] = test system: QT interval; assay: FAM13A1 SNP genotypes and QT prolongation (QTcF) following administration of iloperidone; type: in vivo, human
Description: as §1, with “QT.” for “QT. Using the genotypes at the SNP loci above, it is possible, with a high degree of certainty, to predict an individual's predisposition to QT prolongation.”

Which results are given for `COc1cc(C(C)=O)ccc1OCCCN1CCC(c2noc3cc(F)ccc23)CC1` [iloperidone, 1-[4-[3-[4-(6-fluoro-1,2-benzisoxazol-3-yl)-1-piperidinyl]propoxy]-3-methoxyphenyl]ethanone]?
High QT, + test (number of individuals) ([1]; Change threshold QT > 5 msec): 9; High QT, − test (number of individuals) ([1]; Change threshold QT > 5 msec): 101; Low QT, + test (number of individuals) ([1]; Change threshold QT > 5 msec): 0; Low QT, − test (number of individuals) ([1]; Change threshold QT > 5 msec): 63; High QT, + test (number of individuals) ([1]; Change threshold QT > 15 msec): 8; High QT, − test (number of individuals) ([1]; Change threshold QT > 15 msec): 59; Low QT, + test (number of individuals) ([1]; Change threshold QT > 15 msec): 1; Low QT, − test (number of individuals) ([1]; Change threshold QT > 15 msec): 105; High QT, + test (number of individuals) ([1]; Change threshold QT > 30 msec): 6; High QT, − test (number of individuals) ([1]; Change threshold QT > 30 msec): 22; Low QT, + test (number of individuals) ([1]; Change threshold QT > 30 msec): 3; Low QT, − test (number of individuals) ([1]; Change threshold QT > 30 msec): 142; Lowest QTc change (genotype) ([2]; SNP_A-1824897, rs10008568, allele A=A, B=G): nonAB; Lowest QTc change (genotype) ([2]; SNP_A-1906173, rs3775378, allele A=C, B=T): non-BB; Lowest QTc change (genotype) ([2]; SNP_A-1943446, rs17014602, allele A=C, B=G): non-AA; Lowest QTc change (genotype) ([2]; SNP_A-1977994, rs17014483, allele A=C, B=T): non-BB; Lowest QTc change (genotype) ([2]; SNP_A-2152738, rs1458553, allele A=A, B=G): nonAA; Lowest QTc change (genotype) ([2]; SNP_A-2190887, rs2609260, allele A=A, B=G): nonAB; Lowest QTc change (genotype) ([2]; SNP_A-4287986, rs2609265, allele A=C, B=T): nonAB; Lowest QTc change (genotype) ([2]; SNP_A-4290819, rs17014687, allele A=C, B=T): non-BB; Lowest QTc change (genotype) ([2]; SNP_A-4291320, rs2609264, allele A=C, B=T): nonAB; Lowest QTc change (genotype) ([2]; SNP_A-4296194, rs12507401, allele A=C, B=G): non-AA
